Experimental data published in paper PMC9143450, “Oxonitrogenated Derivatives of Eremophilans and Eudesmans: Antiproliferative and Anti-Trypanosoma cruzi Activity” (Molecules, 2022).

Tests used:
HBL-100 = test: Antiproliferative SRB assay (NCI protocol), HBL-100; format: cell-based, human; conditions: for GI50: Homo sapiens, HBL-100 (breast), 48 h drug exposure, SRB, ± SD; for Selectivity index (SI) on tumor cells: CC50 splenocytes / GI50 HBL-100
Method: (§1) In vitro antiproliferative activity was evaluated using the protocol of the National Cancer Institute (NCI) after 48 h of drug exposure using the sulforhodamine B (SRB) assay.
(§2) The following human solid tumor cell lines were used in this study: HBL-100 (breast), HeLa (cervix), SW1573 (non-small cell lung), T-47D (breast), A549 (lung), and WiDr (colon). These cell lines were a kind gift from Prof. G. J. Peters (VU Medical Center, Amsterdam, The Netherlands). Cells were maintained in 25 cm^2 culture flasks in RPMI 1640 supplemented with 5% heat-inactivated fetal calf serum and 2 mM L-glutamine in a 37 °C, 5% CO2, 95% humidified air incubator. Exponentially growing cells were trypsinized and resuspended in antibiotic containing medium (100 units penicillin G and 0.1 mg of streptomycin per mL). Single cell suspensions displaying > 97% viability by trypan blue dye exclusion test were subsequently counted. After counting, dilutions were made to give the appropriate cell densities for inoculation onto 96-well microtiter plates. Cells were inoculated in a volume of 100 μL per well at densities of 5000 (WiDr and T-47D), and 2500 (A549, HeLa, SW1573 and HBL-100) cells per well, based on their doubling times.
(§3) Chemosensitivity tests were performed using the SRB assay of the NCI with slight modifications. Briefly, pure compounds were initially dissolved in DMSO at 400 times the desired final maximum test concentration. Control cells were exposed to an equivalent concentration of DMSO (0.25% v/v, negative control). Each agent was tested in triplicates at different dilutions in the range 1–100 μM. Drug treatment started on day 1 after plating. Drug incubation periods were 48 h, after which cells were precipitated with 25 μL of ice-cold 50% (w/v) trichloroacetic acid and fixed for 60 min at 4 °C. Then, the SRB assay was performed. The optical density (OD) of each well was measured at 530 nm, using BioTek’s PowerWave XS Absorbance Microplate Reader. Values were corrected for background OD from wells containing only culture medium. The percentage growth (PG) was calculated with respect to untreated control cells (C) at each level of drug concentrations based on the difference in OD at the start time (T0) and at the end of drug exposure (T), according to NCI formulas. Therefore, if T is greater than or equal to T0, the calculation is 100 × ((T − T0)/(C − T0)). If T is lower than T0, denoting cell death, the calculation is 100 × ((T − T0)/(T0)). The effect is defined as the growth percentage, where 50% growth inhibition (GI50) represents the concentration at which PG is +50. Based on these calculations, a PG value of 0 corresponds to the number of cells present at the beginning of drug exposure, while negative PG values denote net cell death.

HeLa = test: Antiproliferative SRB assay (NCI protocol), HeLa; format: cell-based, human; conditions: for GI50: Homo sapiens, HeLa (cervix), 48 h drug exposure, SRB, ± SD; for Selectivity index (SI) on tumor cells: CC50 splenocytes / GI50 HeLa
Method: as §1, §2, §3

SW1573 = test: Antiproliferative SRB assay (NCI protocol), SW1573; format: cell-based, human; conditions: for GI50: Homo sapiens, SW1573 (non-small cell lung), 48 h drug exposure, SRB, ± SD; for Selectivity index (SI) on tumor cells: CC50 splenocytes / GI50 SW1573
Method: as §1, §2, §3

T-47D = test: Antiproliferative SRB assay (NCI protocol), T-47D; format: cell-based, human; conditions: for GI50: Homo sapiens, T47D, T-47D (breast), 48 h drug exposure, SRB, ± SD; for Selectivity index (SI) on tumor cells: CC50 splenocytes / GI50 T-47D
Method: as §1, §2, §3

WiDr = test: Antiproliferative SRB assay (NCI protocol), WiDr; format: cell-based, human; conditions: for GI50: Homo sapiens, WiDr (colon), 48 h drug exposure, SRB, ± SD; for Selectivity index (SI) on tumor cells: CC50 splenocytes / GI50 WiDr
Method: as §1, §2, §3

[1] = Cytotoxicity on primary cell culture (flow cytometry, PI); format: cell-based; conditions: Balb/c, mouse, primary splenocytes (spleen cells), ± SD, read-out: Cytotoxic activity on spleen cells (CC50)
Method: (§4) The cytotoxicity of the natural sesquiterpenes (1–3) and derivatives (4–19) was determined on primary cell cultures (splenocytes obtained from Balb/c mouse). […] Derivatives of tessaric acid have shown an improvement in CC50 values in comparison with the natural sesquiterpene 1. […] All the derivatives synthesized from alcohol ilicic (compounds 10–19) were more toxic to mammalian cells than the natural compound (3).
(§5) The cytotoxicity of the compounds was evaluated on splenocytes obtained from Balb/c mouse (1.5 × 10^5) and incubated with different drug dilutions (5–200 μg/mL) as previously described. Cell death was determined by flow cytometry using a BD FACSaria II cytometer. Cells incubated only with drug vehicle were used as 100% viability control, and death percentage was calculated according to the following formula: Death%=1−(%PI^−cells)drug−treated/(%PI^−cells)100% viability control × 100
(§6) The concentration capable of causing 50% cell death (CC50) was determined using a non-linear regression approach.

[2] = system: splenocytes obtained from Balb/c mouse; test: as above; format: cell-based; conditions: ± SD, read-out: Cytotoxic activity on spleen cells (CC50)
Method: as §4, §5, §6

[3] = system: Trypanosoma cruzi epimastigotes (RA strain); test: In vitro anti-Trypanosoma cruzi assay ((3H) thymidine uptake); format: cell-based; conditions: for IC50: Trypanosoma cruzi, epimastigotes (RA strain), ± SD; for Selectivity Index on T. cruzi epimastigotes: CC50 splenocytes / IC50 epimastigotes
Method: Trypanosoma cruzi epimastigotes (RA strain, from discrete typing unit (DTU) VI) were grown in a biphasic medium. Cultures were maintained by weekly passages at 28 °C [18].
The growth inhibition of T. cruzi epimastigotes was evaluated by a (^3H) thymidine uptake assay as previously described. Natural sesquiterpenes and derivatives were evaluated at concentrations ranging from 1.5 to 50 µg/mL. Benznidazole (Active Pharmaceutical Ingredient) was used as positive control (Elea). The percentage of inhibition was calculated as 100 = {((cpm of treated parasites)/(cpm of untreated parasites)) × 100}.
Figure 5 Effect of the natural sesquiterpene tessaric acid (1), ilicic acid (2), and ilicic alcohol (3) and their derivatives on T. cruzi. Epimastigotes (RA strain) were cultured in the presence of the compounds (50–1.5 µg/mL). Determinations were performed by triplicate. The results are expressed as the mean ± SD. (A) Effect of tessaric acid and derivatives on epimastigotes; (B) Effect of ilicic acid and derivatives on epimastigotes; (C) Effect of ilicic alcohol and derivatives on epimastigotes.

[4] = system: HeLa, T-47D, WiDr, A549, HBL-100, and SW1573 cell lines; test: Antiproliferative SRB assay, whole panel of human solid tumor cell lines; format: cell-based; conditions: for GI50: Homo sapiens, minimal to maximal GI50 across the cell lines tested, 48 h, SRB, read-out: GI50 values, range over all cell lines tested
Method: as §1, §2, §3

A549 = test: Antiproliferative SRB assay (NCI protocol), A549; format: cell-based, human; conditions: for Selectivity index (SI) on tumor cells: CC50 splenocytes / GI50 A549; for GI50: Homo sapiens, A549 (lung), 48 h drug exposure, SRB, ± SD
Method: as §1, §2, §3

| SMILES | GI50 (HBL-100) [µM] | GI50 (HeLa) [µM] | GI50 (SW1573) [µM] | GI50 (T-47D) [µM] | GI50 (WiDr) [µM] | CC50 [1] [µM] | CC50 [2] [µM] | Trypanocidal activity (in words) ([3]; T. cruzi) | IC50 [3] [µM] | Antiproliferative activity (in words) ([4]; solid tumor cell lines evaluated) | Selectivity index (SI) on tumor cells (A549) | GI50 (A549) [µM] | Selectivity index (SI) on tumor cells (HBL-100) | Selectivity index (SI) on tumor cells (HeLa) | Selectivity index (SI) on tumor cells (SW1573) | Selectivity index (SI) on tumor cells (T-47D) | Selectivity index (SI) on tumor cells (WiDr) | Selectivity Index on T. cruzi epimastigotes [3] | GI50 [4] [µM] | Selectivity index (IS) values, over the tumor cell lines evaluated ([4]; CC50 splenocytes / GI50 tumor cells, across cell lines) |
| --- | --- | --- | --- | --- | --- | --- | --- | --- | --- | --- | --- | --- | --- | --- | --- | --- | --- | --- | --- | --- |
| C=C(C(=O)O)[C@@H]1CCC2=CC(=O)C[C@H](C)[C@@]2(C)C1 [Compound 1, tessaric acid] | > 100 | > 100 | > 100 | > 100 | > 100 | > 329 | 329 | nor trypanocidal activity | > 201 | did not show antiproliferative activity | – | – | – | – | – | – | – | – | – | – |
| C=C(C(=O)N(Cc1ccccc1)C(C)(C)C(=O)NC1CCCCC1)[C@@H]1CCC2=CC(=O)C[C@H](C)[C@@]2(C)C1 [Compound 9] | 47 | 24 | 30 | 21 | 39 | 76.5 | – | – | 45.1 | – | 2.7 | 28 | 1.6 | 3.2 | 2.6 | 3.6 | 2.0 | 1.7 | 17 to 64 | – |
| C=C(C(=O)N(c1ccccc1)C(C)(C)C(=O)NC(C)(C)C)C1CCC2(C)CCCC(C)(O)C2C1 (stereo not drawn) [Compound 10] | 64 | 37 | 50 | 36 | 45 | 78.2 | – | – | 19.6 | – | 2.5 | 31 | 1.2 | 2.1 | 1.6 | 2.2 | 1.7 | 4.0 | 17 to 64 | – |
| C=C(C(=O)N(Cc1ccccc1)C(C)(C)C(=O)NC(C)(C)C)C1CCC2(C)CCCC(C)(O)C2C1 (stereo not drawn) [Compound 11] | 33 | 19 | 33 | 23 | 29 | 334 | – | – | 26.1 | – | 16.7 | 20 | 10.1 | 17.6 | 10.1 | 14.5 | 11.5 | 12.6 | 17 to 64 | – |
| C=C(C(=O)N(c1ccccc1)C(C)(C)C(=O)NCc1ccccc1)C1CCC2(C)CCCC(C)(O)C2C1 (stereo not drawn) [Compound 12] | 20 | 17 | 27 | 20 | 24 | 64.3 | – | – | 8 | – | 2.9 | 22 | 3.2 | 3.8 | 2.4 | 3.2 | 2.7 | 8.0 | 17 to 64 | – |
| C=C(C(=O)N(Cc1ccccc1)C(C)(C)C(=O)NCc1ccccc1)C1CCC2(C)CCCC(C)(O)C2C1 (stereo not drawn) [Compound 13] | 13 | 8 | 11 | 11 | 11 | 27.4 | – | – | 59.6 | – | 5.2 | 5.3 | 2.1 | 3.4 | 2.5 | 2.5 | 2.5 | 0.5 | 5.3 to 14 | – |
| C=C(C(=O)N(c1ccccc1)C(C)(C)C(=O)NC1CCCCC1)C1CCC2(C)CCCC(C)(O)C2C1 (stereo not drawn) [Compound 14] | 20 | 17 | 27 | 23 | 20 | > 405 | – | – | > 101 | – | >18.4 | 22 | – | >24 | – | >17 | – | – | 17 to 64 | greater than 15 |
| C=C(C(=O)N(Cc1ccccc1)C(C)(C)C(=O)NC1CCCCC1)C1CCC2(C)CCCC(C)(O)C2C1 (stereo not drawn) [Compound 15] | 19 | 14 | 17 | 19 | 18 | 21.5 | – | – | 22.4 | – | – | 13 | 1.5 | – | 1.5 | 1.7 | 1.7 | 1.0 | 5.3 to 14 | – |
